Test results taken from ChEMBL document CHEMBL1146172, “Identification of novel, orally bioavailable spirohydantoin CGRP receptor antagonists” (Bioorg Med Chem Lett, 2006).
pIC50, pKi: −log10 of the molar value.

Legend:
[1] = target: Calcitonin gene-related peptide type 1 receptor (Homo sapiens, UniProt O60894+Q16602); experiment: Displacement of [125I]hCGRP from human cloned CGRP receptor expressed in HEK293 cells; format: cell-based
[2] = target: Calcitonin gene-related peptide type 1 receptor (Homo sapiens, UniProt Q16602); experiment: Inhibition of CGRP-induced cAMP production in E10 cells; format: functional, cell-based, Mus musculus
[3] = Bioavailability in rat at 10 mg/kg, po; format: ADME, organism-based; conditions: in vivo
[4] = Half life in rat at 2 mpk, iv; format: ADME, organism-based; conditions: in vivo, 2 mg/kg
[5] = Clearance in rat at 2 mpk, iv; conditions: in vivo, 2 mg/kg
[6] = test system: Rattus norvegicus; experiment: Volume of distribution in rat at 2 mpk, iv; conditions: in vivo, 2 mg/kg
[7] = Solubility at pH 7.4; format: physicochemical; conditions: buffer
[8] = Bioavailability in dog at 2 mg/kg, po; format: ADME, organism-based, Canis lupus familiaris; conditions: in vivo
[9] = Bioavailability in rhesus at 2 mg/kg, po; format: ADME, organism-based, Macaca mulatta; conditions: rhesus monkey, in vivo
[10] = Half life in dog at 0.5 mg/kg, iv; format: ADME, organism-based, Canis lupus familiaris; set-up: dose 0.5 mg/kg, route intravenous; conditions: in vivo
[11] = Half life in rhesus at 0.5 mpk, iv; format: ADME, organism-based, Macaca mulatta; conditions: rhesus monkey, in vivo, 0.5 mg/kg
[12] = target: Cytochrome P450 3A4 (Homo sapiens, UniProt P08684); experiment: Inhibition of CYP3A4; format: ADME
[13] = target: Cytochrome P450 2C9 (Homo sapiens, UniProt P11712); experiment: Inhibition of CYP2C9; format: ADME
[14] = target: Cytochrome P450 2D6 (Homo sapiens, UniProt P10635); experiment: Inhibition of CYP2D6; format: ADME
[15] = Clearance in dog at 0.5 mpk, iv; conditions: in vivo, 0.5 mg/kg
[16] = Clearance in rhesus at 0.5 mpk, iv; conditions: Macaca mulatta, rhesus monkey, in vivo, 0.5 mg/kg
[17] = test system: Canis familiaris; experiment: Volume of distribution in dog at 0.5 mpk, iv; conditions: in vivo, 0.5 mg/kg
[18] = test system: Rhesus monkey; experiment: Volume of distribution in rhesus at 0.5 mpk, iv; conditions: Macaca mulatta, in vivo, 0.5 mg/kg

Calcitonin gene-related peptide type 1 receptor (Homo sapiens, UniProt Q16602), sequence (Q16602 whole entry): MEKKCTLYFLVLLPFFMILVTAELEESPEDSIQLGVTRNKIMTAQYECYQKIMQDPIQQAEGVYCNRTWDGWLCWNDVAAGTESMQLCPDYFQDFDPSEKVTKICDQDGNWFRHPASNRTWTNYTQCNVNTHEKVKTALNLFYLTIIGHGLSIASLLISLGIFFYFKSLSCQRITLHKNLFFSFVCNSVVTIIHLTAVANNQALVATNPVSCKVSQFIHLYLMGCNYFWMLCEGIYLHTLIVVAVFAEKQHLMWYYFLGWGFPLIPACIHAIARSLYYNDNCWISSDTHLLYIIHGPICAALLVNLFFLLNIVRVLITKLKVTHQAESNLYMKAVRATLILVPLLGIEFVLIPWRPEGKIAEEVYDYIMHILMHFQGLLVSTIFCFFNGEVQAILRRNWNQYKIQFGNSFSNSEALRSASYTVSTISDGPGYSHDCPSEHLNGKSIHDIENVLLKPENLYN
Calcitonin gene-related peptide type 1 receptor (Homo sapiens, UniProt O60894+Q16602), sequence (Q16602 whole entry, one chain of several): as the sequence (Q16602 whole entry) above
Cytochrome P450 3A4, sequence (P08684 whole entry): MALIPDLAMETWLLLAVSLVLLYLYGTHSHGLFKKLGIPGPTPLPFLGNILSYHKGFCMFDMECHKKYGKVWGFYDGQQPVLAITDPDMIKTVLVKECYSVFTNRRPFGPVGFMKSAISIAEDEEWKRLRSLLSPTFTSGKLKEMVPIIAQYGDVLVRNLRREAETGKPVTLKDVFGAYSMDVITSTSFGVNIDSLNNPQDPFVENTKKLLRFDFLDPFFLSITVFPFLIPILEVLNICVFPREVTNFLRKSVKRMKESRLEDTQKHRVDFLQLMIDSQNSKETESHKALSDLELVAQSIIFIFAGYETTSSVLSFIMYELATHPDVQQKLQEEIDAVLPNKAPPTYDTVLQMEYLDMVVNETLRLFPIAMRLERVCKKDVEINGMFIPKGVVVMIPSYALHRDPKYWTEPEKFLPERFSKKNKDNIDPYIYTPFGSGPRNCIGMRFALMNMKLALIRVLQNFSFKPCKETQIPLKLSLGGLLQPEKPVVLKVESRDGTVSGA
Cytochrome P450 2D6, sequence (P10635 whole entry): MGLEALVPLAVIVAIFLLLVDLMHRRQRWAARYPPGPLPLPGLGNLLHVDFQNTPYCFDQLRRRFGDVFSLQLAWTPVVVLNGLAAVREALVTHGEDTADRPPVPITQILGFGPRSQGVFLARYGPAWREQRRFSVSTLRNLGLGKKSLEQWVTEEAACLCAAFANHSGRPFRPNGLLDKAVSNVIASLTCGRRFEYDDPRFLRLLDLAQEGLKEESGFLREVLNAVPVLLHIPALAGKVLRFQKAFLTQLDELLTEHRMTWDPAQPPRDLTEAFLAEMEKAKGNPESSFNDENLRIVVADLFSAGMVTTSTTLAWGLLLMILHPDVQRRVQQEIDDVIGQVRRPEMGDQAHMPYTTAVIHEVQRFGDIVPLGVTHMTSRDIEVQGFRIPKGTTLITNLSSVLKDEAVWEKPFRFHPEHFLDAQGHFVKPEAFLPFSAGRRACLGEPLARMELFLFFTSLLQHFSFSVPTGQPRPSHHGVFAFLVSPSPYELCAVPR
Cytochrome P450 2C9, sequence (P11712 whole entry): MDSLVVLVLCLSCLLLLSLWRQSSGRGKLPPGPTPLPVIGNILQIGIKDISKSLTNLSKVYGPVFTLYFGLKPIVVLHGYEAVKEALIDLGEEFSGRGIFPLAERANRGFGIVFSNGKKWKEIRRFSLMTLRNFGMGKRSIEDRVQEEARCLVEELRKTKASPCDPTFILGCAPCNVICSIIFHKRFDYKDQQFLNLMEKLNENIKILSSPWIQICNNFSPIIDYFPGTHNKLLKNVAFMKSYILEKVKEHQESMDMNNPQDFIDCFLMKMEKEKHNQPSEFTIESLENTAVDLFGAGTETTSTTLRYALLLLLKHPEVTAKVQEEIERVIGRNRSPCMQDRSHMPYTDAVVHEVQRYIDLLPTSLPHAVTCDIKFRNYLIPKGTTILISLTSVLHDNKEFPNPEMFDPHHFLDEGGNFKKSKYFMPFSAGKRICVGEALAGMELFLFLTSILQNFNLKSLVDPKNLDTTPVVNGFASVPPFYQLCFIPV

SMILES	pKi [1]	pIC50 [2]	bioavailability [3] [%]	half-life [4] [h]	clearance [5] [mL/min/kg]	Vdss [6] [L/kg]	other results
CN1C(=O)NC(=O)[C@]12Cc1ccc(NC(=O)Cn3c(=O)n(-c4cncnc4)c4ccccc43)cc1C2	8.02	7.30	0	0.5	46	0.95	solubility [7]: > 100 µg/mL
COc1cccc(-n2c(=O)n(CC(=O)Nc3ccc4c(c3)C[C@]3(C4)C(=O)NC(=O)N3C)c3ccccc32)n1	7.82	7.27	13	1.2	11	0.84	–
CN1C(=O)NC(=O)C12Cc1ccc(NC(=O)Cn3c(=O)oc4ccccc43)cc1C2 (centres undefined)	6.99	5.85	–	–	–	–	–
CN1C(=O)NC(=O)[C@@]12Cc1ccc(NC(=O)Cn3c(=O)oc4ccccc43)cc1C2	5.98	–	–	–	–	–	–
CN1C(=O)NC(=O)[C@]12Cc1ccc(NC(=O)Cn3c(=O)n(-c4cnccn4)c4ccccc43)cc1C2	7.92	7.19	1	1.1	11	0.64	–
O=C(Cn1c(=O)[nH]c2ccccc21)Nc1ccc2c(c1)CC1(C2)NC(=O)NC1=O (centres undefined)	6.55	6.16	–	–	–	–	–
CN1C(=O)NC(=O)[C@]12Cc1ccc(NC(=O)Cn3c(=O)n(-c4cc(F)cc(F)c4)c4ccccc43)cc1C2	7.54	6.74	24	6.5	3.1	1.4	–
CN1C(=O)NC(=O)[C@]12Cc1ccc(NC(=O)Cn3c(=O)n(C4CCS(=O)(=O)C4)c4ccccc43)cc1C2 (some centres undefined)	7.77	7.19	0	1.1	31	0.8	solubility [7]: > 100 µg/mL
O=C(Cn1c(=O)oc2ccccc21)Nc1ccc2c(c1)CCC1(C2)NC(=O)NC1=O (centres undefined)	6.22	5.48	–	–	–	–	–
CN1C(=O)NC(=O)[C@]12Cc1ccc(NC(=O)Cn3c(=O)n(-c4ncccn4)c4ccccc43)cc1C2	7.60	6.96	2	1.1	23	0.5	–

Second part, led by results:

pKi [1]	pIC50 [2]	bioavailability [3] [%]	half-life [4] [h]	clearance [5] [mL/min/kg]	Vdss [6] [L/kg]	SMILES	other results
7.06	6.37	–	–	–	–	O=C(Cn1c(=O)n(-c2ccccc2)c2ccccc21)Nc1ccc2c(c1)CC1(C2)NC(=O)NC1=O (centres undefined)	–
7.32	6.46	–	–	–	–	CN1C(=O)NC(=O)[C@]12Cc1ccc(NC(=O)Cn3c(=O)oc4ccccc43)cc1C2	–
7.70	7.21	5	0.9	9	0.43	CN1C(=O)NC(=O)[C@]12Cc1ccc(NC(=O)Cn3c(=O)n(C4CCOC4)c4ccccc43)cc1C2 (some centres undefined)	–
6.51	5.54	–	–	–	–	O=C(Cn1c(=O)oc2ccccc21)Nc1ccc2c(c1)CC1(C2)NC(=O)NC1=O (centres undefined)	–
–	–	36	1.6	3.4	0.47	CN1C(=O)NC(=O)[C@]12Cc1ccc(NC(=O)Cn3c(=O)n(-c4ccccn4)c4ccccc43)cc1C2	bioavailability [8]: 83%; bioavailability [9]: 29%; half-life [10]: 4.8 h; half-life [11]: 9.6 h; pIC50 [12]: < 5.00; pIC50 [13]: < 5.00; pIC50 [14]: < 5.00; solubility [7]: < 1 µg/mL; clearance [15]: 1.7 mL/min/kg; clearance [16]: 0.85 mL/min/kg; Vdss [17]: 0.69 L/kg; Vdss [18]: 0.31 L/kg
8.17	7.41	1	1	60	2	CN1C(=O)NC(=O)[C@]12Cc1ccc(NC(=O)Cn3c(=O)n(-c4cnsc4)c4ccccc43)cc1C2	–
8.00	7.30	0	2.8	7.5	1.8	CN1C(=O)NC(=O)[C@]12Cc1ccc(NC(=O)Cn3c(=O)n(-c4nccc(C(F)(F)F)n4)c4ccccc43)cc1C2	–
8.06	7.62	20	2	3.7	0.54	CN1C(=O)NC(=O)[C@]12Cc1ccc(NC(=O)Cn3c(=O)n(-c4nccs4)c4ccccc43)cc1C2	solubility [7]: < 1 µg/mL
7.11	6.28	–	–	–	–	Cn1c(=O)n(CC(=O)Nc2ccc3c(c2)CC2(C3)NC(=O)NC2=O)c2ccccc21 (centres undefined)	–
